Experimental data published in ChEMBL document CHEMBL1201861, “Genomics of Drug Sensitity in Cancer screening data, Wellcome Trust Sanger Institute”.

Legend:
Assay in all cases: cells
Format in all cases: functional, cell-based, Homo sapiens
[1] = test system: EGI-1;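 note: cell viability readout used to gauge growth inhibition of EGI-1 cells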
Description: SANGER: Inhibition of human EGI-1 cell growth in a cell viability assay.

[2] = test system: COLO-741
Description: SANGER: Inhibition of human COLO-741 cell growth in a cell viability assay.

[3] = test system: U-118-MG
Description: SANGER: Inhibition of human U-118-MG cell growth in a cell viability assay.

[4] = test system: NCI-H1155;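 note: cell growth inhibition measured by a viability assay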
Description: SANGER: Inhibition of human NCI-H1155 cell growth in a cell viability assay.

[5] = test system: ChaGo-K-1;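 note: growth inhibition of ChaGo-K-1 cells, read out with a cell viability assay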
Description: SANGER: Inhibition of human ChaGo-K-1 cell growth in a cell viability assay.

[6] = test system: BHY;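 note: cell growth inhibition read out by a viability assay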
Description: SANGER: Inhibition of human BHY cell growth in a cell viability assay.

[7] = test system: NCI-H1355;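 note: growth inhibition of human NCI-H1355 cells, read out by a cell viability assay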
Description: SANGER: Inhibition of human NCI-H1355 cell growth in a cell viability assay.

[8] = test system: A101D;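 note: growth inhibition of the cell line, measured with a viability assay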
Description: SANGER: Inhibition of human A101D cell growth in a cell viability assay.

[9] = test system: Panc1005;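 note: growth inhibition of human PANC-10-05 cells, measured by a cell viability assay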
Description: SANGER: Inhibition of human PANC-10-05 cell growth in a cell viability assay.

[10] = test system: CAPAN-1;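 note: growth suppression of CAPAN-1 cells, read out by a cell viability assay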
Description: SANGER: Inhibition of human CAPAN-1 cell growth in a cell viability assay.

[11] = test system: LAN-6;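 note: growth inhibition of LAN-6 cells, determined with a cell viability assay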
Description: SANGER: Inhibition of human LAN-6 cell growth in a cell viability assay.

[12] = test system: GI-ME-N;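 note: growth inhibition of human GI-ME-N cells, read out with a cell viability assay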
Description: SANGER: Inhibition of human GI-ME-N cell growth in a cell viability assay.

[13] = test system: KP-4;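 note: human KP-4 cells, with growth inhibition read out through a cell viability assay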
Description: SANGER: Inhibition of human KP-4 cell growth in a cell viability assay.

[14] = test system: LB1047-RCC;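 note: inhibition of cell growth, determined with a cell viability assay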
Description: SANGER: Inhibition of human LB1047-RCC cell growth in a cell viability assay.

[15] = test system: HD-MY-Z;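 note: growth inhibition of HD-MY-Z cells, read out with a cell viability assay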
Description: SANGER: Inhibition of human HD-MY-Z cell growth in a cell viability assay.

[16] = test system: NOS-1;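 note: growth inhibition of the human NOS-1 cell line, read out with a cell viability assay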
Description: SANGER: Inhibition of human NOS-1 cell growth in a cell viability assay.

[17] = test system: NCI-H1650;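 note: growth inhibition of human NCI-H1650 cells measured by a cell viability assay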
Description: SANGER: Inhibition of human NCI-H1650 cell growth in a cell viability assay.

[18] = test system: A-375;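 note: growth inhibition of A375 cells, read out with a cell viability assay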
Description: SANGER: Inhibition of human A375 cell growth in a cell viability assay.

[19] = test system: Ca9-22;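 note: growth inhibition of Ca9-22 cells, read out with a cell viability assay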
Description: SANGER: Inhibition of human Ca9-22 cell growth in a cell viability assay.

[20] = test system: 5637
Description: SANGER: Inhibition of human 5637 cell growth in a cell viability assay.

[21] = test system: GP5d;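 note: growth inhibition of human GP5d cells, read out with a cell viability assay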
Description: SANGER: Inhibition of human GP5d cell growth in a cell viability assay.

[22] = test system: COR-L105;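 note: cell growth inhibition determined with a viability assay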
Description: SANGER: Inhibition of human COR-L105 cell growth in a cell viability assay.

[23] = test system: WM-115
Description: SANGER: Inhibition of human WM-115 cell growth in a cell viability assay.

[24] = test system: NCI-H82;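 note: growth inhibition of NCI-H82 cells, measured with a cell viability readout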
Description: SANGER: Inhibition of human NCI-H82 cell growth in a cell viability assay.

[25] = test system: NCI-H1623;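 note: cell viability assay used as the read-out for growth inhibition of NCI-H1623 cells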
Description: SANGER: Inhibition of human NCI-H1623 cell growth in a cell viability assay.

[26] = test system: NCI-H1437;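 note: growth inhibition of human NCI-H1437 cells, read out by a cell viability assay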
Description: SANGER: Inhibition of human NCI-H1437 cell growth in a cell viability assay.

[27] = test system: RS4-11;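 note: growth inhibition of RS4-11 cells, read out by a cell viability assay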
Description: SANGER: Inhibition of human RS4-11 cell growth in a cell viability assay.

[28] = test system: AGS;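 note: growth inhibition of AGS cells, determined with a cell viability assay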
Description: SANGER: Inhibition of human AGS cell growth in a cell viability assay.

[29] = test system: NCI-H1573;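 note: growth inhibition of NCI-H1573 cells, read out with a cell viability assay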
Description: SANGER: Inhibition of human NCI-H1573 cell growth in a cell viability assay.

[30] = test system: SCC-9;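 note: Read-out is a cell viability assay, with values giving inhibition of cell growth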
Description: SANGER: Inhibition of human SCC-9 cell growth in a cell viability assay.

[31] = test system: BB49-HNC;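 note: cell viability assay read-out, reported as inhibition of BB49-HNC cell growth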
Description: SANGER: Inhibition of human BB49-HNC cell growth in a cell viability assay.

[32] = test system: MKN-7;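 note: growth inhibition of MKN-7 cells, read out with a cell viability assay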
Description: SANGER: Inhibition of human MKN7 cell growth in a cell viability assay.

[33] = test system: KURAMOCHI;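 note: growth inhibition of KURAMOCHI cells, read out with a cell viability assay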
Description: SANGER: Inhibition of human KURAMOCHI cell growth in a cell viability assay.

[34] = test system: NY
Description: SANGER: Inhibition of human NY cell growth in a cell viability assay.

[35] = test system: NCI-H1770;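 note: growth inhibition of NCI-H1770 cells determined with a viability readout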
Description: SANGER: Inhibition of human NCI-H1770 cell growth in a cell viability assay.

[36] = test system: BEN; conditions: Homo sapiens, BEN;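 note: growth inhibition of the BEN cell line, read out with a cell viability assay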
Description: SANGER: Inhibition of human BEN cell growth in a cell viability assay.

[37] = test system: S-117
Description: SANGER: Inhibition of human S-117 cell growth in a cell viability assay.

[38] = test system: LN-405
Description: SANGER: Inhibition of human LN-405 cell growth in a cell viability assay.

[39] = test system: NCI-H69;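 note: growth inhibition of the cell line, read out with a cell viability assay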
Description: SANGER: Inhibition of human NCI-H69 cell growth in a cell viability assay.

[40] = test system: DU-4475
Description: SANGER: Inhibition of human DU-4475 cell growth in a cell viability assay.

CS(=O)(=O)c1ccc(C(=O)Nc2ccc(Cl)c(-c3ccccn3)c2)c(Cl)c1 [VISMODEGIB]
IC50 ([1]; Homo sapiens, EGI-1): > 10 µM
IC50 ([2]; Homo sapiens, COLO-741): > 10 µM
IC50 ([3]; Homo sapiens, U-118-MG): > 10 µM
IC50 ([4]; Homo sapiens, NCI-H1155): > 10 µM
IC50 ([5]; Homo sapiens, ChaGo-K-1): > 10 µM
IC50 ([6]; Homo sapiens, BHY): > 10 µM
IC50 ([7]; Homo sapiens, NCI-H1355): > 10 µM
IC50 ([8]; Homo sapiens, A101D): > 10 µM
IC50 ([9]; Homo sapiens, Panc1005): > 10 µM
IC50 ([10]; Homo sapiens, CAPAN-1): > 10 µM
IC50 ([11]; Homo sapiens, LAN-6): > 10 µM
IC50 ([12]; Homo sapiens, GI-ME-N): > 10 µM
IC50 ([13]; Homo sapiens, KP-4): > 10 µM
IC50 ([14]; Homo sapiens, LB1047-RCC): > 10 µM
IC50 ([15]; Homo sapiens, HD-MY-Z): > 10 µM
IC50 ([16]; Homo sapiens, NOS-1): > 10 µM
IC50 ([17]; Homo sapiens, NCI-H1650): > 10 µM
IC50 ([18]; Homo sapiens, A-375): > 10 µM
IC50 ([19]; Homo sapiens, Ca9-22): > 10 µM
IC50 ([20]; Homo sapiens): > 10 µM
IC50 ([21]; Homo sapiens, GP5d): > 10 µM
IC50 ([22]; Homo sapiens, COR-L105): > 10 µM
IC50 ([23]; Homo sapiens, WM-115): > 10 µM
IC50 ([24]; Homo sapiens, NCI-H82): > 10 µM
IC50 ([25]; Homo sapiens, NCI-H1623): > 10 µM
IC50 ([26]; Homo sapiens, NCI-H1437): > 10 µM
IC50 ([27]; Homo sapiens, RS4-11): > 10 µM
IC50 ([28]; Homo sapiens, AGS): > 10 µM
IC50 ([29]; Homo sapiens, NCI-H1573): > 10 µM
IC50 ([30]; Homo sapiens, SCC-9): > 10 µM
IC50 ([31]; Homo sapiens, BB49-HNC): > 10 µM
IC50 ([32]; Homo sapiens, MKN-7): > 10 µM
IC50 ([33]; Homo sapiens, KURAMOCHI): > 10 µM
IC50 ([34]; Homo sapiens, NY): > 10 µM
IC50 ([35]; Homo sapiens, NCI-H1770): > 10 µM
IC50 [36]: > 10 µM
IC50 ([37]; Homo sapiens, S-117): > 10 µM
IC50 ([38]; Homo sapiens, LN-405): > 10 µM

CISPLATIN
IC50 ([1]; egi-1): 11.1 µM
IC50 ([2]; colo-741): 28.7 µM
IC50 ([3]; u-118-mg): 16.8 µM
IC50 ([4]; nci-h1155): 22.7 µM
IC50 ([5]; chago-k-1): 15.2 µM
IC50 ([6]; bhy): 49.3 µM
IC50 ([7]; nci-h1355): 6.63 µM
IC50 ([8]; a101d): 21.7 µM
IC50 ([9]; panc1005): 8.61 µM
IC50 ([10]; capan-1): 24.3 µM
IC50 ([11]; lan-6): 256 µM
IC50 ([12]; gi-me-n): 11 µM
IC50 ([13]; kp-4): 11.7 µM
IC50 ([14]; lb1047-rcc): 5.89 µM
IC50 ([39]; nci-h69): 231 µM
IC50 ([15]; hd-my-z): 18 µM
IC50 ([16]; nos-1): 147 µM
IC50 ([17]; nci-h1650): 19 µM
IC50 ([18]; a-375): 535 µM
IC50 ([40]; du-4475): 111 µM
IC50 ([19]; ca9-22): 10.4 µM
IC50 [20]: 4.52 µM
IC50 ([21]; gp5d): 24.2 µM
IC50 ([22]; cor-l105): 22.7 µM
IC50 ([23]; wm-115): 33.4 µM
IC50 ([24]; nci-h82): 74.9 µM
IC50 ([25]; nci-h1623): 46.9 µM
IC50 ([26]; nci-h1437): 84.4 µM
IC50 ([27]; rs4-11): 5.57 µM
IC50 ([28]; ags): 24.6 µM
IC50 ([29]; nci-h1573): 112 µM
IC50 ([30]; scc-9): 23.6 µM
IC50 ([31]; bb49-hnc): 48.2 µM
IC50 ([32]; mkn-7): 20 µM
IC50 ([33]; kuramochi): 159 µM
IC50 ([34]; ny): 28.2 µM
IC50 ([35]; nci-h1770): 417 µM
IC50 ([37]; s-117): 4.53 µM
IC50 ([38]; ln-405): 15.5 µM

CN(C)C(=N)NC(=N)N [METFORMIN]
IC50 ([4]; Homo sapiens, NCI-H1155): 17700 µM
IC50 ([5]; Homo sapiens, ChaGo-K-1): 8890 µM
IC50 ([6]; Homo sapiens, BHY): > 20000 µM
IC50 ([7]; Homo sapiens, NCI-H1355): > 20000 µM
IC50 ([8]; Homo sapiens, A101D): > 20000 µM
IC50 ([10]; Homo sapiens, CAPAN-1): > 20000 µM
IC50 ([12]; Homo sapiens, GI-ME-N): > 20000 µM
IC50 ([13]; Homo sapiens, KP-4): 7050 µM
IC50 ([14]; Homo sapiens, LB1047-RCC): 16400 µM
IC50 ([39]; Homo sapiens, NCI-H69): 8560 µM
IC50 ([15]; Homo sapiens, HD-MY-Z): > 20000 µM
IC50 ([16]; Homo sapiens, NOS-1): > 20000 µM
IC50 ([40]; Homo sapiens, DU-4475): 3840 µM
IC50 ([19]; Homo sapiens, Ca9-22): 7950 µM
IC50 ([20]; Homo sapiens): 5300 µM
IC50 ([21]; Homo sapiens, GP5d): > 20000 µM
IC50 ([22]; Homo sapiens, COR-L105): > 20000 µM
IC50 ([23]; Homo sapiens, WM-115): > 20000 µM
IC50 ([26]; Homo sapiens, NCI-H1437): > 20000 µM
IC50 ([27]; Homo sapiens, RS4-11): > 20000 µM
IC50 ([28]; Homo sapiens, AGS): 15700 µM
IC50 ([29]; Homo sapiens, NCI-H1573): 16900 µM
IC50 ([30]; Homo sapiens, SCC-9): 10200 µM
IC50 ([31]; Homo sapiens, BB49-HNC): > 20000 µM
IC50 ([33]; Homo sapiens, KURAMOCHI): > 20000 µM
IC50 ([34]; Homo sapiens, NY): 14100 µM
IC50 ([35]; Homo sapiens, NCI-H1770): 4100 µM
IC50 [36]: 15400 µM
